Test results as given in US12454518B2, “Substituted N-(2-(2,6-dioxopiperidin-3-yl)-1,3-dioxoisoindolin-5-yl)arylsulfonamide analogs as modulators of cereblon protein” (ST. JUDE CHILDREN'S RESEARCH HOSPITAL, INC., priority 2020, dated 2025).
pEC50, pIC50: −log10 of the molar value. Read-outs that look alike come from different tables or passages of the source.

Legend:
Aqueous solubility assay = assay type: physicochemical; details: pH = 7.4, in triplicate
Description: The storage plate was sealed and incubated at RT for 18 h. The suspension was then filtered through a 96-well filter plate (pION Inc., Woburn, MA). 75 μL of filtrate was mixed with 75 μL 1-propanol to make the sample plate, and the UV spectrum of the sample plate was read. Calculations were carried out with μSOL Evolution software based on the area under the curve (AUC) of the UV spectrum of the sample and reference plates. All compounds were tested in triplicate.

GSPT1 = target: T1, GSPT1 (Homo sapiens, UniProt P15170+Q96SW2); assay: Immunoblot analysis of GSPT1 degradation in MV4-11 cells; assay type: cell-based; set-up: Dmax: dose or concentration left out as unconfirmed
T1 construct: endogenous in cells; host or cells: MV4-11
T1 sequence (P15170 whole entry): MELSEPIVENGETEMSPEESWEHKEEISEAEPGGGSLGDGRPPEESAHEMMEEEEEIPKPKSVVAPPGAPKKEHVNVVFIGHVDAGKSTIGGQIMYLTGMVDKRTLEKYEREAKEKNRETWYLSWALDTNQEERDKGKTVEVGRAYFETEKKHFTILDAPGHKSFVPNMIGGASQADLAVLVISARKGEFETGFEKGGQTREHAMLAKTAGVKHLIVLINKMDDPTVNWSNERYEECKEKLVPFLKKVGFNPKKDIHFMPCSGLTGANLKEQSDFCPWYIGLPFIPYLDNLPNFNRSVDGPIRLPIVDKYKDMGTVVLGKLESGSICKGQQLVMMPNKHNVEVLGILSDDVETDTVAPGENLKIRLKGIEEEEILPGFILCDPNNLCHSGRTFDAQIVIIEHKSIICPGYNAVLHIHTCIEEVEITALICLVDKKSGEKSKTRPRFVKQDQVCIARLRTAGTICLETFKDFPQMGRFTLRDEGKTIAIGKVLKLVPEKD
T1 sequence (Q96SW2 whole entry): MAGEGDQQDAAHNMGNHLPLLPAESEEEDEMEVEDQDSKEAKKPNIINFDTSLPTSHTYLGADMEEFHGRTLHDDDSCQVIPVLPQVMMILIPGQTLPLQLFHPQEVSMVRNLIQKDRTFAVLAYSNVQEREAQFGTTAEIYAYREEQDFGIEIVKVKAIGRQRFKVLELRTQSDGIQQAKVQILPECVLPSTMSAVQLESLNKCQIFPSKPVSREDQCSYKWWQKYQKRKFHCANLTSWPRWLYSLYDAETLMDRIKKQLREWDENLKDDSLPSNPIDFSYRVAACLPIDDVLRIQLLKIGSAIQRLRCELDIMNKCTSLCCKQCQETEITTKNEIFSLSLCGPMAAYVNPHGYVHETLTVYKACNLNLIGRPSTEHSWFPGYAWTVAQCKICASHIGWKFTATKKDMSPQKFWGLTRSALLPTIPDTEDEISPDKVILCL
T1 sequence (Q16531 2-1140 partner limits assumed): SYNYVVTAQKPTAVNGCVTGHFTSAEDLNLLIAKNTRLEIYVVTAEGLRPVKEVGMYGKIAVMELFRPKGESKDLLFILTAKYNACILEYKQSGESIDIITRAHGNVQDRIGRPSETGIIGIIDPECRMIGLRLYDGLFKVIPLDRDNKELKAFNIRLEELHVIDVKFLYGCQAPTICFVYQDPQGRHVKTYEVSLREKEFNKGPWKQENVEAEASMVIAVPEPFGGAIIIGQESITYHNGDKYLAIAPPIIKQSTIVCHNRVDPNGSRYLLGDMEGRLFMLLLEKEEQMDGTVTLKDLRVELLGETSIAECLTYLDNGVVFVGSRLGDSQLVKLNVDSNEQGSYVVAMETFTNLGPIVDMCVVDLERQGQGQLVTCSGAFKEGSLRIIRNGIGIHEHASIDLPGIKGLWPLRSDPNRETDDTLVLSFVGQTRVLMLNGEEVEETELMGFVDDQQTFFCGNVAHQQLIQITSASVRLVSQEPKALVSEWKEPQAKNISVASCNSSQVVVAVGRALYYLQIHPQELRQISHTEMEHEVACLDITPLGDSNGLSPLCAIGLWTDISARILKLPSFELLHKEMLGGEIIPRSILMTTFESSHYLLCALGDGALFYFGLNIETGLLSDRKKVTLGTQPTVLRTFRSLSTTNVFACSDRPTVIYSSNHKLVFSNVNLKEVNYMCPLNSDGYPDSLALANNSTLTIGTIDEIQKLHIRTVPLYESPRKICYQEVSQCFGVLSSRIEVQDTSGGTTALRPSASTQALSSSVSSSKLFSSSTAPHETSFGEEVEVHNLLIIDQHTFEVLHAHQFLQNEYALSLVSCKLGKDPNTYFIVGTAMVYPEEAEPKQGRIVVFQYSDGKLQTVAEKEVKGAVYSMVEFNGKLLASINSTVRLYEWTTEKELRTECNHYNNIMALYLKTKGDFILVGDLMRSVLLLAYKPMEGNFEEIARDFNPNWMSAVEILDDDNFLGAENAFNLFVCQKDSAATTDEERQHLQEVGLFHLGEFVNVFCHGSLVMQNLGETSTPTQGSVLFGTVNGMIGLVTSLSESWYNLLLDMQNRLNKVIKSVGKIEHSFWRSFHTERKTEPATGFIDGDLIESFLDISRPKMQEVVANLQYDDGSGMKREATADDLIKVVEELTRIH
Description: (§1) MV4-11 cells were seeded in 6-well plates (1×10^6 cells per well). After overnight incubation, the cells were treated with indicated concentrations for specific timepoints. […] After blocking the membrane with LI-COR TBS blocking buffer and incubation in primary antibody overnight, the corresponding protein signals were detected using IRDye secondary antibodies and Odyssey Imaging System. Image Studio Lite Ver 5.2 was used for blot quantification. […] IRDye®, 800CW Goat anti-Mouse IgG Secondary Antibody and IRDye® 680RD Goat anti-Rabbit IgG Secondary Antibody were used as secondary antibodies.

IKZF1 = target: T2, IKZF1 (Homo sapiens, UniProt Q13422); assay: Immunoblot analysis of IKZF1 degradation in MV4-11 cells; assay type: cell-based; details: for IKZF1 degradation at 4 hours: any of the concentrations tested
T2 construct: endogenous in cells; host or cells: MV4-11
T2 sequence (Q96SW2 whole entry partner): as the sequence (Q96SW2 whole entry) above
T2 sequence (Q16531 2-1140 partner limits assumed): as the sequence (Q16531 2-1140 partner limits assumed) above
T2 sequence (Q13422 whole entry): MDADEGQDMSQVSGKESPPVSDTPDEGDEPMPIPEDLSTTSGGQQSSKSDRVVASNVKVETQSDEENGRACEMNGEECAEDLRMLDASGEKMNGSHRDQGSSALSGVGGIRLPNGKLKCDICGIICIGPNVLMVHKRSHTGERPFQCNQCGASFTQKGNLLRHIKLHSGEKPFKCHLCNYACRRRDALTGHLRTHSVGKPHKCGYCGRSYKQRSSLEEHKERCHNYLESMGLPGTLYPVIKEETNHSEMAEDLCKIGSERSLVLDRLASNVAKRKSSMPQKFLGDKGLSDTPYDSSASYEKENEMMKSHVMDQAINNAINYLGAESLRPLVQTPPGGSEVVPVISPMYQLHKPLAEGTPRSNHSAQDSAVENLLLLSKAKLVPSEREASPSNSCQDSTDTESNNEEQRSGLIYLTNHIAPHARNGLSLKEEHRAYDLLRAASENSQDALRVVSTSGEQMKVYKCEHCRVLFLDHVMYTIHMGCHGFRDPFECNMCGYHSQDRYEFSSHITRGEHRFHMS
Description: as §1

[1] = tested on: caspase 3/7 activity in Mv4:11 cells; assay: Caspase 3/7 activity assay; assay type: cell-based, human; details: Caspase-Glo, time points 4, 8 and 24 hours; 10 and 100 nM
[2] = Pharmacokinetics study in CD1 mice; assay type: in vivo; details: 3 mg/kg IV
Description: Healthy female CD1 mice (8-12 weeks old) weighing between 20 to 30 g were procured from Global, India. Three mice were housed in each cage. Temperature and humidity were maintained at 22±3° C. and 30-70%, respectively and illumination was controlled to give a sequence of 12 hr light and 12 hr dark cycle. Temperature and humidity were recorded by auto-controlled data logger system. All the animals were provided laboratory rodent diet (Envigo Research private Ltd, Hyderabad). Reverse osmosis water treated with ultraviolet light was provided ad libitum. Formulation vehicle: 5% v/v NMP: 5% v/v Solute HS-15 and 90% v/v normal saline. […] The dosing volume for intravenous was 5 mL/kg and for oral administration 10 mL/kg. Blood samples (approximately 60 μL) were collected under light isoflurane anesthesia (Surgivet®) from retro orbital plexus from a set of three mice at 0.08 (for IV only), 0.25, 0.5, 1, 2, 4, 6 (for PO only), 8, 12 and 24 hr. Immediately after blood collection, plasma was harvested by centrifugation at 4000 rpm, 10 min at […] and samples were stored at −70±10° C. until bioanalysis. […] Non-Compartmental-Analysis tool of Phoenix WinNonlin® (Version 8.0) was used to assess the pharmacokinetic parameters. Peak plasma concentration (Cmax) and time for the peak plasma concentration (Tmax) were the observed values. The areas under the concentration time curve (AUClast and AUCinf) were calculated by linear trapezoidal rule. The terminal elimination rate constant, ke was determined by regression analysis of the linear terminal portion of the log plasma concentration-time curve. Clearance was estimated as Dose/AUCinf and Vss as CL*MRT. The oral bioavailability was calculated as ratio of dose normalized AUC of oral and intravenous group multiplied by 100.

MV4-11 cells [3] = assay: Lenalidomide competition assay; assay type: cell-based, human; details: lenalidomide 10 μM, 3 days
Description: Compounds were screened in human cancer cell lines and each cell line was cultured in the complete medium recommended by the vendor and seeded in Corning 8804BC white 384-well assay plates at density of 1,000, 1,000, 1,000, 1,500 and 7,500 cells per well, for MV4-11, HD-MB03, MB004, MB002 and MHH-CALL4 cells respectively. After overnight incubation at 37° C. in a humidified 5% CO2 incubator, cells were treated with compounds in dose-response format using a Pintool on a Biomek FX^P Laboratory Automation Workstation (Beckman Coulter). […] After 72 h incubation, cell proliferation was assessed using Cell Titer-Glo (CTG) luminescent cell viability assay (Promega) according to the manufacturer's instruction. Luminescence signal was measured using an Envision plate reader (Perkin-Elmer).

MV4-11 cells [4] = assay: MV-4-11 cell viability assay; details: for pEC50: Homo sapiens
Description: MV-4-11 cell line was purchased from the American Type Culture Collection (ATCC, Manassas, VA). The cells were cultured according to recommendations in IMDM cell culture media (ATCC). […] Compounds were transferred to the assay plate from a dose-response plate using a Pintool on a Biomek FXP Laboratory Automation Workstation (Beckman Coulter). […] Luminescence was measured on an Envision plate reader (Perkin-Elmer).
After overnight incubation at 37° C. in a humidified 5% CO2 incubator, cells were treated with compounds in dose-response format using a Pintool on a Biomek FX^P Laboratory Automation Workstation (Beckman Coulter). […] Luminescence signal was measured using an Envision plate reader (Perkin-Elmer).

[5] = target: T3, GSPT1 HiBiT tag protein in HEK293 cells (Homo sapiens, UniProt P15170+Q96SW2); assay: hGSPT1 HiBiT assay; assay type: cell-based; details: 4 hrs incubation, class symbols, read-out: GSPT1 HiBit EC50
T3 construct: HEK293_hGSPT1_HiBiT tagged cells were generated using CRISPR-Cas12a technology; endogenous in cells; host or cells: HEK293 (genome-edited at the GSPT1 locus, HiBiT knock-in)
T3 sequence (P15170 whole entry): as the sequence (P15170 whole entry) above
T3 sequence (Q96SW2 whole entry): as the sequence (Q96SW2 whole entry) above
T3 sequence (Q16531 2-1140 partner limits assumed): as the sequence (Q16531 2-1140 partner limits assumed) above
Description: hGSPT1 HiBiT cell line. HEK293_hGSPT1_HiBiT tagged cells were generated using CRISPR-Cas12a technology. Briefly, ˜400,000 HEK293 cells were transiently co-transfecting with precomplexed ribonuclear proteins (RNPs) consisting of 80 pmol of crRNA (IDT), 62 pmol of Cas12a protein (IDT), 3 ug of ssODN donor (IDT; AItR™ modifications), 78 pmol of electroporation enhancer (IDT), and 200 ng of pMaxGFP(Lonza). The transfection was performed via nucleofection (Lonza, 4D-Nucleofector™ X-unit) using solution P3 and program CM-130 in a small (20 ul) cuvette according to the manufacturer's recommended protocol. Five days post-nucleofection, cells were single cell sorted for GFP+(transfected) cells by FACs in 96-well plates and clonally selected. Clones were screened and verified for the desired modification via targeted deep sequencing using gene specific primers with partial Illumina adapter overhangs as previously described.^58 In brief, clonal cell pellets were harvested, lysed and used to generate gene specific amplicons with partial Illumina adapters in PCR #1. Amplicons were indexed in PCR #2 and pooled with other targeted amplicons for other loci to create sequence diversity. Additionally, 10% PhiX Sequencing Control V3 (Illumina) was added to the pooled amplicon library prior to running the sample on an Miseq Sequencer System (Illumina) to generate paired 2×250 bp reads. Samples were demultiplexed using the index sequences, fastq files were generated, and NGS analysis was performed using CRIS.py.^59 Final clones were authenticated using the PowerPlex® Fusion System (Promega) performed at the Hartwell Center (St. Jude) and tested negative for mycoplasma by the MycoAlert™Plus Mycoplasma Detection Kit (Lonza). Editing construct sequences and screening primers are listed below in Table 4.
hGSPT1 HiBiT assay. […] After 4 hrs incubation, the level of GSPT1 HiBiT tag protein was evaluated using Nano-Glo® HiBiT Lytic Detection System (Promega) according to the manufacturer's instruction.

6XHis-CRBN-DDB1 protein = target: T4, 6XHis-CRBN-DDB1 protein (Homo sapiens, UniProt Q96SW2); assay: CRBN fluorescence polarization assay; assay type: binding; details: class symbols; read-out: CRBN FP IC50
T4 construct: 6XHis (N)
T4 sequence (Q96SW2 whole entry): as the sequence (Q96SW2 whole entry) above
T4 sequence (Q16531 whole entry partner): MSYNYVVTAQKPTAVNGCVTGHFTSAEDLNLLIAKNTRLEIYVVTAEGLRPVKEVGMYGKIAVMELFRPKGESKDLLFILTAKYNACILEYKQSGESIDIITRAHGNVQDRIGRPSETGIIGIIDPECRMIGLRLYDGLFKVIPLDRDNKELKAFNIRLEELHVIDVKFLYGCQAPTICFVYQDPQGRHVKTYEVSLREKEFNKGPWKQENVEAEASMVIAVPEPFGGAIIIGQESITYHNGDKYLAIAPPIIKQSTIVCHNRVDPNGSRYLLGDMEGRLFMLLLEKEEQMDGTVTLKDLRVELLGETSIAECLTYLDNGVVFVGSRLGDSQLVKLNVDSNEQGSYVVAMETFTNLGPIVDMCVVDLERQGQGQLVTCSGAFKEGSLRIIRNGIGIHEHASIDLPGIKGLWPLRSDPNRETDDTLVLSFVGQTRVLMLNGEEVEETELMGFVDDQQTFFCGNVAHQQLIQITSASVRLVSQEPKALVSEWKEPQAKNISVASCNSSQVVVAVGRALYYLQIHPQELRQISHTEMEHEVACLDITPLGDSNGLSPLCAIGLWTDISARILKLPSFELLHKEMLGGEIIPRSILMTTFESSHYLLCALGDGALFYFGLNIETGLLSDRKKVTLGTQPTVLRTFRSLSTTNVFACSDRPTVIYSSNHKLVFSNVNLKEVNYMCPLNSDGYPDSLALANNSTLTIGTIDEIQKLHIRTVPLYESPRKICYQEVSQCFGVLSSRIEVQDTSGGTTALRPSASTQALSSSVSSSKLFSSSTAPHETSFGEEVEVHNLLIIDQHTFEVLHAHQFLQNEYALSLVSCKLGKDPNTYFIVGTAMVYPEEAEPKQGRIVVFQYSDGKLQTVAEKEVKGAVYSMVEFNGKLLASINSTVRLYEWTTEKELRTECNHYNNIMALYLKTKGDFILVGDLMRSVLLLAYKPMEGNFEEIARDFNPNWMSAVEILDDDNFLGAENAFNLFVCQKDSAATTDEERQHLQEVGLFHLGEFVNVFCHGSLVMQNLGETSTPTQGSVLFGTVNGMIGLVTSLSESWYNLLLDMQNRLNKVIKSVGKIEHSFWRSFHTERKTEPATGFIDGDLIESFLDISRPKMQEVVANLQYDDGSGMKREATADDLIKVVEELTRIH
Description: 6XHis-CRBN-DDB1 protein (200 nM) and Cy5-O-Len probe (30 nM) were combined in 20 mM HEPES pH 7, 150 mM NaCl, 0.005% Tween-20 assay buffer. […] The plates were incubated in the dark for 1 hour at room temperature and then read on an Envision plate reader (PerkinElmer, Massachusetts, USA).

[6] = MV4-11, 72 h, read-out: MV4-11 EC50
[7] = MV4-11, read-out: antiproliferative activity in MV4-11, EC50

O=C1CCC(N2Cc3cc(CNC(=O)C(F)(F)c4ccc(Cl)cc4)ccc3C2=O)C(=O)N1 (stereo not drawn) [CC90009, reference compound]
Sol. (aqueous solubility) (Aqueous solubility assay): 77 µM

O=C1CCC(N2Cc3cc(CNC(=O)C(F)(F)c4ccc(Cl)cc4)ccc3C2=O)C(=O)N1 (stereo not drawn) [CC-90009, reference compound]
Dmax at 10 µM (GSPT1; MV4-11 cells, 4 h, at 10 μM, read-out: GSPT1 maximum degradation efficacy, Dmax): 74%
Dmax (GSPT1; MV4-11 cells, 24 h, read-out: GSPT1 Dmax): > 90%
Dmax (IKZF1; 24 h): > 90%

O=C1CCC(N2C(=O)c3ccc(NS(=O)(=O)c4ccccc4OC(F)(F)F)cc3C2=O)C(=O)N1 (stereo not drawn) [compound 1, N-(2-(2,6-dioxopiperidin-3-yl)-1,3-dioxoisoindolin-5-yl)-2-(trifluoromethoxy)benzenesulfonamide]
Sol. (aqueous solubility) (Aqueous solubility assay): 67 µM
IKZF1 degradation at 4 hours (IKZF1): did not significantly degrade IKZF1
IKZF1 protein abundance after 24 hours (IKZF1): dose-dependent decrease
time point at which caspase activation was observed [1]: 8 h
clearance [2]: 0.46 mL/min/kg
terminal elimination half-life (t1/2) [2]: 3.4 h
volume of distribution [2]: 0.15 L/kg
antiproliferative effect in presence of lenalidomide (MV4-11 cells [3]): abrogating the antiproliferative effects
pEC50 (MV4-11 cells [4]; [6]): 8.82
pEC50 (MV4-11 cells [4]; [7]): 8.82

O=C1CCC(N2C(=O)c3ccc(NS(=O)(=O)c4cccc(OC(F)(F)F)c4)cc3C2=O)C(=O)N1 (stereo not drawn) [compound 2, N-(2-(2,6-dioxopiperidin-3-yl)-1,3-dioxoisoindolin-5-yl)-3-(trifluoromethoxy)benzenesulfonamide]
Sol. (aqueous solubility) (Aqueous solubility assay): 64 µM
effects on the protein levels of GSPT1 by immunoblotting (GSPT1; MV4-11 cells): no effects
effects on the protein levels of IKZF1 by immunoblotting (IKZF1): no effects
IKZF1 protein abundance after 24 hours (IKZF1): dose-dependent decrease
pEC50 (MV4-11 cells [4]; [6]): < 5.00
pEC50 (MV4-11 cells [4]; [7]): 7.28

Cc1c(Cl)cccc1S(=O)(=O)Nc1ccc2c(c1)C(=O)N(C1CCC(=O)NC1=O)C2=O (stereo not drawn) [compound 5, 3-chloro-N-(2-(2,6-dioxopiperidin-3-yl)-1,3-dioxoisoindolin-5-yl)-2-methylbenzenesulfonamide]
Sol. (aqueous solubility) (Aqueous solubility assay): 64 µM
Dmax (GSPT1; MV4-11, read-out: GSPT1 maximum degradation efficacy, Dmax): 60%
IKZF1 degradation at 4 hours (IKZF1): did not significantly degrade IKZF1
time point at which caspase activation was observed [1]: 24 h
antiproliferative effect in presence of lenalidomide (MV4-11 cells [3]): abrogating the antiproliferative effects
pEC50 (MV4-11 cells [4]; [6]): 7.28

Cc1ccc(S(=O)(=O)Nc2ccc3c(c2)C(=O)N(C2CCC(=O)NC2=O)C3=O)cc1Cl (stereo not drawn) [compound 7, 3-chloro-N-(2-(2,6-dioxopiperidin-3-yl)-1,3-dioxoisoindolin-5-yl)-4-methylbenzenesulfonamide]
pEC50 (MV4-11 cells [4]; [6]): < 5.00

O=C1CCC(N2C(=O)c3ccc(NS(=O)(=O)c4ccccc4)cc3C2=O)C(=O)N1 (stereo not drawn) [compound 20, N-(2-(2,6-dioxopiperidin-3-yl)-1,3-dioxoisoindolin-5-yl)benzenesulfonamide]
Sol. (aqueous solubility) (Aqueous solubility assay): 71 µM
pEC50 (MV4-11 cells [4]; [6]): < 5.00
cell potency in MV4-11 cells (in words) (MV4-11 cells [4]; MV4-11 cells): inactive

O=C1CCC(N2Cc3cc(NS(=O)(=O)c4ccccc4)ccc3C2=O)C(=O)N1 (stereo not drawn) [compound 38, N-(2-(2,6-dioxopiperidin-3-yl)-1-oxoisoindolin-5-yl)benzenesulfonamide]
DC50 [5]: > 10 µM

O=C1CCC(N2Cc3cc(NS(=O)(=O)c4cccc(OC(F)(F)F)c4)ccc3C2=O)C(=O)N1 (stereo not drawn) [compound 43, N-(2-(2,6-dioxopiperidin-3-yl)-1-oxoisoindolin-5-yl)-3-(trifluoromethoxy)benzenesulfonamide]
DC50 [5]: < 1 µM

O=C1CCC(N2Cc3cc(NS(=O)(=O)c4ccccc4C(F)(F)F)ccc3C2=O)C(=O)N1 (stereo not drawn) [compound 44, N-(2-(2,6-dioxopiperidin-3-yl)-1-oxoisoindolin-5-yl)-2-(trifluoromethyl)benzenesulfonamide]
DC50 [5]: > 10 µM

CC(C)(C)c1ccc(S(=O)(=O)Nc2ccc3c(c2)CN(C2CCC(=O)NC2=O)C3=O)cc1 (stereo not drawn) [compound 46]
DC50 [5]: < 1 µM

Cc1ccc(CS(=O)(=O)Nc2ccc3c(c2)C(=O)N(C2CCC(=O)NC2=O)C3=O)cc1 (stereo not drawn) [compound 58, N-(2-(2,6-dioxopiperidin-3-yl)-1,3-dioxoisoindolin-5-yl)-1-(p-tolyl)methanesulfonamide]
pIC50 (6XHis-CRBN-DDB1 protein): > 6.00

Cc1noc(C)c1S(=O)(=O)Nc1ccc2c(c1)C(=O)N(C1CCC(=O)NC1=O)C2=O (stereo not drawn) [compound 60, N-(2-(2,6-dioxopiperidin-3-yl)-1,3-dioxoisoindolin-5-yl)-3,5-dimethylisoxazole-4-sulfonamide]
pIC50 (6XHis-CRBN-DDB1 protein): > 6.00

O=C1CCC(N2C(=O)c3ccc(NS(=O)(=O)c4cccc(Cl)c4F)cc3C2=O)C(=O)N1 (stereo not drawn) [compound 61, 3-chloro-N-(2-(2,6-dioxopiperidin-3-yl)-1,3-dioxoisoindolin-5-yl)-2-fluorobenzenesulfonamide]
pIC50 (6XHis-CRBN-DDB1 protein): > 6.00

O=C1CCC(N2C(=O)c3ccc(NS(=O)(=O)c4ccc(F)cc4Cl)cc3C2=O)C(=O)N1 (stereo not drawn) [compound 67, 2-chloro-N-(2-(2,6-dioxopiperidin-3-yl)-1,3-dioxoisoindolin-5-yl)-4-fluorobenzenesulfonamide]
pIC50 (6XHis-CRBN-DDB1 protein): > 6.00
DC50 [5]: > 10 µM
